Test results taken from patent US10702492B2, “PPARα activator, pharmaceutical composition, food and drink, food additive, supplement and method of manufacturing the same” (Marukome Co., Ltd., priority 2015, dated 2020).
Entries after “also recorded” stand apart in the source; their conditions may differ.

Experiments:
[1] = molecular target: T1, human PPARα (Homo sapiens, UniProt Q07869); assay: PPARα luciferase assay; format: cell-based; conditions: CV-1 cells, 1.3 μM, 24 hours after the addition; FIG. 6 and FIG. 7
T1 construct: expressed in transfected cells; host or cells: CV-1 cells
T1 sequence (Q07869 239-466 limits assumed): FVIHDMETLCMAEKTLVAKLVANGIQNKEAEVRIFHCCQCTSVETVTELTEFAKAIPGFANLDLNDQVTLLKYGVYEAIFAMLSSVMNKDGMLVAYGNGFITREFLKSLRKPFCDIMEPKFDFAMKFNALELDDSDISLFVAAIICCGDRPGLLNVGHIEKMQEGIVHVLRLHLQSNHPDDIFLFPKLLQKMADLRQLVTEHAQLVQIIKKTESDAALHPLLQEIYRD
Experimental: The PPARα activity of koji extract 1 was evaluated by PPARα luciferase assay. The assay was performed by a method as previously described (T. Goto et al., Biochemical and Biophysical Research Communications 337(2005) 440-445).
Specifically, CV-1 cells that were transfected with p4×UASg-tk-luc (reporter plasmid), pM-hPPARα (expression vector for DNA-binding domain of GAL4 and ligand-binding domain of human PPARα for chimeric protein), pRL-CMV (internal control for normalizing transfection efficiency) and Lipofectamine™ Reagent. The cells were cultured in a DMEM culture medium containing 10% FBS and penicillin/streptomycin (10 mg/mL).
The CV-1 cells were transfected with the vector with Lipofectamine and cultured for 24 hours. Then, the medium was replaced with a medium added with 0.1 mg/mL, 0.5 mg/mL or 5 mg/mL of the concentrated koji extract 1 with 70% ethanol (dilution rate: 50 times), respectively, and the CV-1 cells were further cultured for 24 hours. The measurement of luciferase activity was performed by using Dual-Luciferase(R) Reporter Assay System (Promega) and a luminometer (MicroLumat Plus, Berthold Japan Co., Ltd.) according to the protocols of the reagent and the luminometer.
As a positive control, a medium added with […] of a known PPARα agonist, GW-7647 (2-[4-[2-[1-(4-cyclohexylbutyl)-3-cyclohexylureido]ethyl]phenylthio]isobutyric acid) was used. […]

[2] = test system: mouse primary-cultured hepatocytes; assay: TG accumulation in mouse primary-cultured hepatocytes (TG kit); format: cell-based; conditions: 24 hours, 500 μM oleic acid medium, vs. negative control (CT+), FIG. 8
Experimental: The effect on the accumulation of triglyceride ([…]) of a koji extract was evaluated by using mouse primary-cultured hepatocytes and koji extract 1 used in Example 1.
Primary-cultured hepatocytes were prepared from hepatocytes separated from C57BL/6J mice (6 week old, male), and were seeded in a 12-well plate (2×10^5 cells/ml). After confirming the attachment of the cells to the plate at 3-5 hours after the seeding, the medium was replaced with a serum-free medium (low-glucose DMEM, 1% P/S, 500 μM oleic acid, 20 μg/mL BSA). At this time, koji extract 1 was added in an amount of 0.1 mg/mL or 1 mg/mL. As a positive control, a medium added with GW-7647 ([…]) was used.
At 24 hours after the addition, the amount of TG accumulation of the primary-cultured hepatocytes was measured with a TG kit (Wako). […] The error bar refers to SE (n=4), * is p<0.05, ** is p<0.01 (vs. control).
The effect on triglyceride (TG) accumulation of 9-HODE:10E,12E was evaluated by using mouse primary-cultured hepatocytes.
Primary-cultured hepatocytes were prepared from hepatocytes separated from C57BL/6J mice (6 week old, male), and seeded in a 12-well plate (2×10^5 cells/ml). […]
At 24 hours after the addition, the accumulation amount of TG was measured by using a TG kit (Wako). […]

CCCCC/C=C/C=C/C(O)CCCCCCCC(=O)O (stereo not drawn) [9-HODE:10E,12E, 9-hydroxy-10,12-octadecadienoic acid]
PPARα activity [1]: remarkably high; also recorded: relatively high
accumulation amount of TG ([2]; 3 μM): significant decrease
accumulation amount of TG ([2]; 10 μM): significant decrease
